Test results reported in US11236086B2, “Substituted pyrrolopyridines as inhibitors of activin receptor-like kinase” (BLUEPRINT MEDICINES CORPORATION, priority 2017, dated 2022).

Key:
human ALK2 R206H = biological target: T1, human ALK2 R206H (Homo sapiens, UniProt Q04771, R206H); assay: Cell-based ALK2-R206H cell activity assay (Smad1-Ser463/Ser465 phosphorylation by AlphaLISA in HEK293-ALK2-R206H cells); conditions: phospho-Smad1 AlphaLISA, read-out: Cell Line (Cell Assay, IC50 class)
T1 construct: expressed in transfected cells; host or cells: HEK293 (ATCC CRL1573), lentivirus transduction, blasticidin selection
T1 sequence (Q04771 21-509 R206H): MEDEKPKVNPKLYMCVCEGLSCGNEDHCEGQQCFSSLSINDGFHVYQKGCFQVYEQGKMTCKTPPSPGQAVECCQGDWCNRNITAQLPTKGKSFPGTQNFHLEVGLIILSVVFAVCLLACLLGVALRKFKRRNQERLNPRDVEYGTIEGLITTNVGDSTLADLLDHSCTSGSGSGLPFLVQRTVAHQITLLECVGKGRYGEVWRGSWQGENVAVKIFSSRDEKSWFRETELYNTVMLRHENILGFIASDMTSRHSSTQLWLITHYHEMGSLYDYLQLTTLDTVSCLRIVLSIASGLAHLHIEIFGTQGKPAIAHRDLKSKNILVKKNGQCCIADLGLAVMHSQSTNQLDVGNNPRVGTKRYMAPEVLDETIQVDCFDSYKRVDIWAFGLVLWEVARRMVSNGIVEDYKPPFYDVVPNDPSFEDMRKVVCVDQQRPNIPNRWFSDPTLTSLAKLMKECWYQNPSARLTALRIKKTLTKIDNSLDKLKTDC
Summary of the method: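 IC50 comes from a 10-point curve, scaled between DMSO and 1 μM LDN193189 controls, of lysate phospho-Smad1 (Ser463/465) measured by AlphaLISA. Compounds (top 10 μM or 1 μM, 3-fold steps, duplicates) were given 2-3 h to serum-starved HEK293 cells that stably express FLAG-tagged human ALK2 R206H.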

[1] = biological target: T2, ALK2R206H (mutant ALK2, N-terminally tagged with GST) (Homo sapiens, UniProt Q04771, R206H); assay: ALK binding assay (LANTHASCREEN TR-FRET competitive binding, displacement of Kinase Tracer 178); conditions: read-out: Binding Assay (IC50 class)
T2 construct: purchased Carna Bioscience or ThermoFisher 09-148 or PV6232
T2 sequence (Q04771 21-509 R206H): T1 sequence (Q04771 21-509 R206H)
Summary of the method: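 Competitive displacement of Kinase Tracer 178 (50 nM) from N-terminally GST-tagged mutant ALK2 R206H (2-5 nM) by compound, detected by TR-FRET with Eu-anti-GST antibody (4-10 nM). 30 min room temperature incubation, 1% DMSO final; normalized signal fitted to 4-parameter log dose response for IC50.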

Row | SMILES | IC50 (human ALK2 R206H) [nM] | IC50 [1] [nM]
1 | CCOC(=O)N1CCN(c2ccnc3[nH]c(-c4cnn(C5COC5)c4)cc23)CC1 [Compound 145] | ≤ 100 | ≤ 10
2 | CCn1cnc(-c2cc3c(N4CCN(C(=O)OC5COC5)CC4)ccnc3[nH]2)c1 [Compound 146] | ≤ 100 | ≤ 10
3 | Cc1nc(-c2cc3c(N4CCN(C(=O)OC5COC5)CC4)ccnc3[nH]2)cn1C [Compound 147] | ≤ 100 | ≤ 10
4 | Cc1c(-c2cnn(C)c2)[nH]c2nccc(N3CCN(C(=O)OC4COC4)CC3)c12 [Compound 148] | 100 to 500 | ≤ 10
5 | Cn1cc(-c2cc3c(N4CCN(C(=O)O[C@H]5C[C@@H](O)C5)CC4)ccnc3[nH]2)cn1 [Compound 149] | 100 to 500 | ≤ 10
6 | Cn1cc(-c2cc3c(N4CCN(C(=O)O[C@H]5CCOC5)CC4)ccnc3[nH]2)cn1 [Compound 150] | 100 to 500 | ≤ 10
7 | Cc1nn(C)cc1-c1cc2c(N3CCN(C(=O)OC4COC4)CC3)ccnc2[nH]1 [Compound 151] | 100 to 500 | ≤ 10
8 | Cn1cc(-c2cc3c(N4CCN(C(=O)OC5(C)COC5)CC4)ccnc3[nH]2)cn1 [Compound 152] | 100 to 500 | ≤ 10
9 | Cn1cc(-c2cc3c(N4CCN(C(=O)OCC5COC5)CC4)ccnc3[nH]2)cn1 [Compound 153] | 100 to 500 | ≤ 10
10 | CC1OCC1OC(=O)N1CCN(c2ccnc3[nH]c(-c4cnn(C)c4)cc23)CC1 (stereo not shown) [Compound 155] | > 500 | ≤ 10
11 | Cc1nc(-c2cc3c(N4CCN(C(=O)OC5CCC5)CC4)ccnc3[nH]2)cs1 [Compound 159] | ≤ 100 | ≤ 10
12 | Cn1cnc(-c2cc3c(N4CCN(C(=O)O[C@H]5C[C@@H](F)C5)CC4)ccnc3[nH]2)c1 [Compound 160] | ≤ 100 | ≤ 10
13 | Cn1cc(-c2cc3c(N4CCN(C(=O)O[C@H]5C[C@@H](F)C5)CC4)ccnc3[nH]2)cn1 [Compound 161] | ≤ 100 | ≤ 10
14 | Cn1cc(-c2cc3c(N4CCN(C(=O)O[C@H]5C[C@H](F)C5)CC4)ccnc3[nH]2)cn1 [Compound 162] | ≤ 100 | ≤ 10
15 | Cc1csc(-c2cc3c(N4CCN(C(=O)OC5COC5)CC4)ccnc3[nH]2)c1 [Compound 167] | ≤ 100 | ≤ 10
16 | Cc1cc(-c2cc3c(N4CCN(C(=O)OC5COC5)CC4)ccnc3[nH]2)cs1 [Compound 169] | ≤ 100 | ≤ 10
17 | Cc1nc(-c2cc3c(N4CCN(C(=O)OC5COC5)CC4)ccnc3[nH]2)cs1 [Compound 170] | ≤ 100 | ≤ 10
18 | Cc1cc(-c2cc3c(N4CCN(C(=O)OC5COC5)CC4)ccnc3[nH]2)sn1 [Compound 171] | 100 to 500 | ≤ 10
19 | Cc1csc(-c2cc3c(N4CCN(C(=O)OC5COC5)CC4)ccnc3[nH]2)n1 [Compound 173] | 100 to 500 | ≤ 10
20 | Cc1cnc(-c2cc3c(N4CCN(C(=O)OC5COC5)CC4)ccnc3[nH]2)s1 [Compound 174] | 100 to 500 | ≤ 10
21 | Cc1ncsc1-c1cc2c(N3CCN(C(=O)OC4COC4)CC3)ccnc2[nH]1 [Compound 175] | 100 to 500 | ≤ 10
22 | CCOC(=O)N1CCN(c2ccnc3[nH]c(-c4ncc(C(C)C)s4)cc23)CC1 [Compound 177] | ≤ 100 | ≤ 10
23 | Cn1cc(-c2[nH]c3nccc(N4CCN(C(=O)OC5COC5)CC4)c3c2F)cn1 [Compound 178] | 100 to 500 | ≤ 10
24 | Cn1cc(-c2cc3c(N4CCN(C(=O)OC5COC5)CC4)ccnc3[nH]2)c(F)n1 [Compound 179] | 100 to 500 | ≤ 10

Row | SMILES | IC50 (human ALK2 R206H) [nM] | IC50 [1] [nM]
25 | Cn1cc(-c2cc3c(N4CCN(C(=O)C5CC(F)(F)C5)CC4)ccnc3[nH]2)cn1 [Compound 180] | 100 to 500 | ≤ 10
26 | NC1(c2ccc(-c3cc4c(N5CCN(C(=O)C6CC6)CC5)ccnc4[nH]3)cc2)CC1 [Compound 183] | ≤ 100 | ≤ 10
27 | CC(C)(C)c1ccc(-c2cc3c(N4CCN(C(=O)C5CC5)CC4)ccnc3[nH]2)cc1 [Compound 185] | 100 to 500 | ≤ 10
28 | CC(C)OC(=O)N1CCN(c2ccnc3[nH]c(-c4cnn(C)c4)c(Cl)c23)CC1 [Compound 186] | 100 to 500 | ≤ 10
29 | CCCOC(=O)N1CCN(c2ccnc3[nH]c(-c4cnn(C)c4)c(Cl)c23)CC1 [Compound 187] | ≤ 100 | ≤ 10
30 | N#Cc1ccc(-c2cc3c(N4CCN(C(=O)OC5COC5)CC4)ccnc3[nH]2)cc1 [Compound 188] | ≤ 100 | ≤ 10
31 | Cc1nc(-c2cc3c(N4CCN(C(=O)O[C@@H](C)CF)CC4)ccnc3[nH]2)cs1 [Compound 189] | ≤ 100 | ≤ 10
32 | Cc1nc(-c2cc3c(N4CCN(C(=O)OCC(F)F)CC4)ccnc3[nH]2)cn1C [Compound 190] | ≤ 100 | ≤ 10
33 | CCOC(=O)N1CCN(c2ccnc3[nH]c(-c4cnn(C)c4C(F)F)cc23)CC1 [Compound 191] | 100 to 500 | ≤ 10
34 | N#Cc1ccc(-c2cc3c(N4CCN(C(=O)OC5COC5)CC4)ccnc3[nH]2)nc1 [Compound 192] | 100 to 500 | ≤ 10
35 | CC(C)Oc1ccc(-c2cc3c(N4CCN(C(=O)C5CC5)CC4)ccnc3[nH]2)cc1 [Compound 194] | ≤ 100 | ≤ 10
36 | CC(C)(O)c1ccc(-c2cc3c(N4CCN(C(=O)C5CC5)CC4)ccnc3[nH]2)cc1 [Compound 195] | ≤ 100 | ≤ 10
37 | O=C(C1CC1)N1CCN(c2ccnc3[nH]c(-c4cnn(C5CCCC5)c4)cc23)CC1 [Compound 197] | ≤ 100 | ≤ 10
38 | N#Cc1cnc(-c2cc3c(N4CCN(C(=O)OC5COC5)CC4)ccnc3[nH]2)nc1 [Compound 198] | 100 to 500 | ≤ 10
39 | Cn1cnc(-c2[nH]c3nccc(N4CCN(C(=O)OC5CCC5)CC4)c3c2C#N)c1 [Compound 199] | ≤ 100 | ≤ 10
40 | Cn1cc(-c2[nH]c3nccc(N4CCN(C(=O)OC5CCC5)CC4)c3c2C#N)cn1 [Compound 200] | ≤ 100 | ≤ 10
41 | Cc1nc(-c2[nH]c3nccc(N4CCN(C(=O)OC5CC5)CC4)c3c2C#N)cn1C [Compound 201] | ≤ 100 | ≤ 10
42 | Cn1cc(-c2cc3c(N4CCN(C(=O)O[C@H]5C[C@H](C#N)C5)CC4)ccnc3[nH]2)cn1 [Compound 202] | ≤ 100 | ≤ 10
43 | Cn1cc(-c2cc3c(N4CCN(C(=O)OC5COC5)CC4)ccnc3[nH]2)cc1C#N [Compound 203] | ≤ 100 | ≤ 10
44 | CCOC(=O)N1CCN(c2ccnc3[nH]c(-c4ncc(OC)cc4C#N)cc23)CC1 [Compound 204] | 100 to 500 | ≤ 10
45 | Cc1nc(-c2cc3c(N4CCN(C(=O)[C@H]5C[C@H](C#N)C5)CC4)ccnc3[nH]2)cs1 [Compound 205, (1r,3r)-3-(4-(2-(2-methylthiazol-4-yl)-1H-pyrrolo[2,3-b]pyridin-4-yl)piperazine-1-carbonyl)cyclobutanecarbonitrile] | ≤ 100 | ≤ 10
46 | Cn1cc(-c2[nH]c3nccc(N4CCN(C(=O)OC5COC5)CC4)c3c2C#N)cn1 [Compound 207] | ≤ 100 | ≤ 10
47 | Cn1cnc(-c2[nH]c3nccc(N4CCN(C(=O)OC5COC5)CC4)c3c2C#N)c1 [Compound 208] | ≤ 100 | ≤ 10
